Assay results taken from patent US20220338759A1, “DEVICE FOR CALCULATING, DURING ONE STEP OR EACH SUCCESSIVE STEP OF THE GAIT OF A SUBJECT, THE PUSH-OFF P0 OF THE SUBJECT” (Centre National De La Recherche Scientifique, priority 2019, published 2022).
Several values for one entry are separate records, joined by “and”; a condition that tells them apart may be missing. Identical values can stand only once.

Key:
[1] = tested on: progressive multiple sclerosis; details: cited from earlier work
[2] = tested on: patients with progressive MS (pMS); test: Prospective observational 12-month study of pMS patients with newly introduced MD1003 (pMS-b cohort): T25FW, Po and falls at M0 and M6; type: in vivo, human; details: for mean change in Po / mean change in TW25F: M6 vs M0
Experimental: We perform a prospective observational study to evaluate a measure of a surrogate of ankle push-off moment power (Po) as a biomarker of evolution in pMS patients with stable treatment and pMS patients with newly introduced MD1003 (high-dose biotin). Po is measured during a 10m-walk with U-turn and back, using an IMU attached to each foot. The objective is to assess whether the dynamic measure of Po at 6-month interval reflects the response to treatment (assessed using the change in the timed 25-foot walk or the Expanded Disease Status Scale) and the change in fall risk within 6 months.
Second, the inventors aim at measuring how this variation in Po impact evolution of fall risk in this group of pMS patients. […] The T25FW, Po and risk of falls was assessed every 6 months using a simple validated protocol and the evolution of Po and the risk of falls were compared for each individual according to their response to treatment.
Patients—Thirty-three patients with progressive MS (pMS) and 20 gender and age-matched healthy subjects (HS) were enrolled in this longitudinal prospective study (table 1). pMS were recruited consecutively from the outpatient clinic of Percy Hospital (Clamart, France) between December 2017 and April 2018. The inclusion criteria for participation in the pMS cohorts required participants to be at least 18 years old, be diagnosed with primary progressive or secondary progressive multiple sclerosis according to the 2010 International Panel criteria, be capable of walking 20 m with U-turn, be free of any other conditions that affect gait. The exclusion criteria was pregnancy and high-dose biotin intake before M0. From the pMS cohort, the inventors isolated a subgroup, named pMS-b cohort, built with patients who were treated with high-dose biotin (MD1003 100 mg, three times a day) for at least one year after inclusion. For participating in the pMS-b cohort, additional inclusion criteria were those of the cohort Temporary Use Authorisation (TUAc) of MD1003—they had to have been free of any relapse for at least one year and sign the consent to enter the TUA cohort. The other patients were included in a group named pMS-nb. Exclusion criteria from this pMS-nb cohort were the presence of drug intake modification for the six-months prior to inclusions or during the twelve-month follow-up. HS participants were recruited from the hospital and research unit staff between December 2017 and April 2018. The inclusion criteria for participation in the HS cohort included: no report of falls in the past 5 years before inclusion, no disease that could affect their walk. Seventeen patients were included in the pMS-b cohort and 16 in the pMS-nb cohort. All participants gave their written consent to participate in the study. The study protocol was conducted according to the Helsinki principles and approved by Ethic Comity “Protection des Personnes Nord Ouest III” under the ID RCB: 2017-A01538-45.
Measures—Gait was measured using four 3-dimensional accelerometers (Mtw XSens®, 100 Hz sampling frequency) positioned on the head, lower back (L4-L5 vertebrae) and dorsal part of both feet. Participants performed two walks of 20 m with U-turn (10 m way in and 10 m way out). One trial per visit only was used in this study, as the second trial was done with specific conditions for the sake of a reproducibility test in a previous study. A limit at 7.62 m was drawn for the assessor to timeclock the T25FW during the first way-in. Disease severity was assessed using patient-reported outcomes (the Multiple Sclerosis Walking Scale-12—MSWS—and the Fatigue Impact Scale—FIS) together with clinical evaluation (Expanded Disease Severity Scale [10]-EDSS—and Computerized Speed Cognitive Test [11]—CSCT) and the 25-foot walking test administered according to a validated standardized protocol. […]

[3] = pMS-b (n = 17), T25FW at M6 vs M0

**Q.** Which “response to treatment as defined by a 20% decrease in TW25F” value ([1]; cohort of the phase 3 clinical trial [14]) does the source give for `O=C(O)CCCC[C@@H]1SC[C@@H]2NC(=O)N[C@@H]21` [MD1003, biotin] here?
**A.** Its value is 8.7%.

**Q.** And the “patients in whom the T25FW time decreased by 20%” value ([1]; recently demonstrated efficacy of MD1003)?
**A.** The value was 10%.

**Q.** And the “response to treatment as defined by a 20% decrease in TW25F” value ([2]; our cohort (pMS-b))?
**A.** The value was 13%.

**Q.** And the “complete responder (≥20% decrease), number of patients” value ([2]; pMS-b (n = 17), MD1003 100 mg three times a day, T25FW at M6 vs M0)?
**A.** Its value is 3/17 and 3.

**Q.** And the “complete progressor (≥20% increase), number of patients” value [2, 3]?
**A.** The value was 5.

**Q.** What about the “complete progressor (≥20% increase), percent of patients” value [2, 3] of the same compound?
**A.** Its value is “(29%)”.

**Q.** What about the “non responder (−10-10% decrease), number of patients” value [2, 3] of the same compound?
**A.** Its value is 5.

**Q.** What about the “non responder (−10-10% decrease), percent of patients” value [2, 3] of the same compound?
**A.** Its value is “(29%)”.

**Q.** What about the “partial progressor (10-20% increase), number of patients” value [2, 3] of the same compound?
**A.** The value was 2.

**Q.** What about the “partial progressor (10-20% increase), percent of patients” value [2, 3] of the same compound?
**A.** The value was “(12%)”.

**Q.** And the “partial responder (10-20% decrease), number of patients” value [2, 3]?
**A.** The value was 2.

**Q.** What about the “partial responder (10-20% decrease), percent of patients” value [2, 3] of the same compound?
**A.** Its value is “(12%)”.

**Q.** What about the “participants who decreased their number of falls among the three with Po decreased by more than 20%” value ([2]; pMS-b cohort) of the same compound?
**A.** Its value is “Two”.

**Q.** What about the “significant change of Po after beginning of MD1003” value ([2]; pMS-b cohort) of the same compound?
**A.** Its value is “nearly half the cohort”.

**Q.** And the “responders (response to treatment by change in timed 25-foot walk or EDSS)” value ([2]; pMS-b cohort, summary of results, M0 to M6)?
**A.** The value was 2/17.

**Q.** What about the “participants who decreased their Po by more than 20%” value ([2]; pMS-b cohort, M0 to M6) of the same compound?
**A.** The value was “Three”.

**Q.** And the “mean change in Po” value ([2]; pMS-b complete progressors)?
**A.** The value was −0.36.

**Q.** And the “mean change in TW25F” value ([2]; pMS-b complete progressors)?
**A.** The value was 1.39.

**Q.** What about the “mean change in Po” value ([2]; pMS-b complete responders) of the same compound?
**A.** The value was 0.33.

**Q.** And the “mean change in TW25F” value ([2]; pMS-b complete responders)?
**A.** Its value is −0.26.

**Q.** And the “number of falls in the following 6 months in the 4 patients with significant increase (higher than 20%) in Po” value ([2]; pMS-b group)?
**A.** Its value is “equal or lower number of falls”.

**Q.** What about the “patients showing an increase in Po of more than 20%” value ([2]; pMS-b group, 17 patients, M0 to M6) of the same compound?
**A.** The value was 4.

**Q.** What about the “patients who increased their Po” value ([2]; pMS-b group, out of the 17 patients, M0 to M6) of the same compound?
**A.** Its value is 8.

**Q.** And the “patients who did not fall during the first 6-month period and began falling during the second 6-month period” value ([2]; pMS-b group, M0-M6 vs M6-M12)?
**A.** Its value is 3.

**Q.** And the “patients who fell during the first 6-month period and stopped falling during the second 6-month period” value ([2]; pMS-b group, M0-M6 vs M6-M12)?
**A.** Its value is 1.

**Q.** And the “mean change in Po” value ([2]; pMS-b non responders)?
**A.** The value was −0.02.

**Q.** And the “mean change in TW25F” value ([2]; pMS-b non responders)?
**A.** Its value is 0.00.

**Q.** And the “mean change in Po” value ([2]; pMS-b partial progressors)?
**A.** The value was 0.05.

**Q.** What about the “mean change in TW25F” value ([2]; pMS-b partial progressors) of the same compound?
**A.** Its value is 0.17.

**Q.** What about the “mean change in Po” value ([2]; pMS-b partial responders) of the same compound?
**A.** Its value is 0.14.

**Q.** And the “mean change in TW25F” value ([2]; pMS-b partial responders)?
**A.** Its value is −0.17.

**Q.** And the effect on locomotion ([2]; small sample of pMS patients)?
**A.** The effect on locomotion was “improved the locomotion in a subset pMS patients”.
